Here are results for 67 compounds from patent US7652047B2, “Phenylamino isothiazole carboxamidines as MEK inhibitors” (Ardea Biosciences, Inc., priority 2005, dated 2010).

Where two headings read alike, the source gives them in different places. Bounds are passed on as bounds.

The assay has as its target T1, MEK1^CA (human GST-MEK1, constitutively active, Ser218Asp and Ser222Asp) (Homo sapiens, UniProt Q02750, S218D/S222D).
T1 construct: GST; made in house; host or cells: Escherichia coli
The experiment in a line: MEK1 enzymatic activity assay (MEK1^CA / ERK2 / MBP, [γ-33P]ATP incorporation). It counts as biochemical. The source says:
Materials and preparation of reagents: Human GST-MEK1 and the constitutively active allele GST-MEK1^CA (harboring the mutations Ser218Asp and Ser222Asp) were subcloned into the […] expression vector pGEM4Z (Promega, Madison, Wis.) from the wild type human MEK1 cDNA. GST-MEK1^CA was expressed in Escherichia coli and partially purified using Glutathione Sepharose 4B affinity resin (Amersham Pharmacia Biotech, Piscataway, N.J.). The ERK2 allele was subcloned from MAPK2/Erk2 cDNA (wild type) in pUSEamp (Upstate Biotechnology, Inc., Waltham, Mass.) into the vector pET21a (Novagen, Madison, Wis.) resulting in an N-terminal histidine-tagged mouse ERK2 allele. […] Myelin basic protein (MBP) was purchased from Gibco BRL (Rockville, Md.). EasyTides adenosine 5′-triphosphate (ATP) ([γ-^33P]) (NEN Perkin Elmer, Wellesley, Mass.) was the source of radiolabel for all kinase reactions. Activated Raf-1 (truncated) and activated MAPKinase 2/ERK2 were purchased from Upstate, Inc. (Lake Placid, N.Y.). 4-20% Criterion Precast gels were purchased from Bio-Rad (Hercules, Calif.).
A typical 25-microliter assay contained 0.002 nanomoles MEK1^CA, 0.02 nanomoles ERK2, 0.25 nanomoles MBP, 0.25 nanomoles unlabeled ATP, and 0.1 μCi [γ^33P] ATP. The screening assay essentially comprised four additions. Five μl of diluted compound were dispensed to 96-well assay plates. Ten μl of 2.5× enzyme cocktail (MEK1^CA and ERK2 only) were then added to each well followed by a pre-incubation for 30 minutes at ambient temperature. […] Finally, 100 μl of 10% trichloroacetic acid (TCA) were added and incubated for 30 minutes at room temperature to halt the reaction and precipitate radiolabeled protein products. Reaction products were harvested on glass fiber 96 well filter plates prewetted with water and 1% pyrophosphate. The filter plate was then washed 5 times with water. Water was displaced by absolute ethanol and the plate was allowed to air dry for 30 minutes at room temperature. A back seal was applied manually and 40 μl of scintillation cocktail were dispensed to each well. A top seal was applied and the plate was counted in the TopCount for two seconds per well.

[1] abbreviates: Table 1, compounds of formula I, read-out: Avg IC50.
Where [2] appears, read: Table 2, Ar1-A contains an amido or indolo group, read-out: IC 50.

T1 sequence (Q02750 whole entry S218D/S222D): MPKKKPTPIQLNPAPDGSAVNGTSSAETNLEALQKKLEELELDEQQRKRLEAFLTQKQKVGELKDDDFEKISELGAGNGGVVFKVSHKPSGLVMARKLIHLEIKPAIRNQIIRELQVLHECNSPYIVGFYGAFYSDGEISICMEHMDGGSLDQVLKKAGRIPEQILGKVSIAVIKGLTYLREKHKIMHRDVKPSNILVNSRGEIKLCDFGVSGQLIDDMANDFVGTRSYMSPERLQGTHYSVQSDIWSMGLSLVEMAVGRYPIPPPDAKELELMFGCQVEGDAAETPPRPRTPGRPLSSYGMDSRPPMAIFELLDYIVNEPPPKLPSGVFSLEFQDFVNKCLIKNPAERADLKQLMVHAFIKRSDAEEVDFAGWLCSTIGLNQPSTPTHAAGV

For `COC(=O)c1ccccc1Oc1ccc(Nc2snc(O)c2C(=N)NC(C)C)cc1` [compound 487], the IC50 under setting [1] lay in the range of 1 to 100 nM.

As for `CC(C)CC(C)NC(=N)c1c(O)nsc1Nc1ccc(Oc2ccccc2)cc1` (stereo not shown) [compound 35], the IC50 under setting [1] lay within 100 to 500 nM.

`CCCCNC(=N)c1c(O)nsc1Nc1ccc(Oc2ccccc2)cc1` [Cpd 27]: the IC50 under setting [1] was 100 to 500 nM.

As for `N=C(NCC(O)CO)c1c(O)nsc1Nc1ccc(Cl)cc1` (stereo not shown) [compound 101], the IC50 under setting [1] was 100 to 500 nM.

In the case of `N=C(NCC1(O)CCCCC1)c1c(O)nsc1Nc1ccc(Oc2ccccc2)cc1` [compound 189], under setting [1], the IC50 was 100 to 500 nM.

In the case of `Cc1cc(Oc2cccc(C(F)(F)F)c2)ccc1Nc1snc(O)c1C(=N)NC(C)C` [compound 437], under setting [1], the IC50 lay in the range of 1 to 100 nM.

On to `N=C(NCC1CCCCC1)c1c(O)nsc1Nc1ccc(Sc2ccccc2)cc1` [drawing 826], for which the IC50 (Table 4, R' is (CH2)1 or 2-G, read-out: IC50) was 1 to 100 nM.

As to `CC(C)(C)NC(=N)c1c(O)nsc1Nc1ccc(Oc2ccccc2)cc1` [compound 173], the IC50 under setting [1] lay within 1 to 100 nM.

In the case of `Cc1ccc(Oc2ccc(Nc3snc(O)c3C(=N)NCC3CCCCC3)cc2)cn1` [compound 124], the IC50 under setting [1] fell in the range of 100 to 500 nM.

As for `CCn1sc(Nc2ccc(Oc3ccccc3)cc2)c(C(=N)NC(C)C)c1=O` [compound 194], the IC50 under setting [1] is greater than 500 nM.

`CC(CO)NC(=N)c1c(O)nsc1Nc1ccc(C(=O)N2CCN(C)CC2)cc1` (stereo not shown) [E-17]: the IC50 under setting [2] was greater than 1000 nM.

Consider `CC1(C)C2CCC1[C@H](CNC(=N)c1c(O)nsc1Nc1ccc(Oc3ccccc3)cc1)CC2` (stereo partly shown) [compound 46], for which the IC50 under setting [1] was 1 to 100 nM.

Turning to `N=C(NCCCCO)c1c(O)nsc1Nc1ccc(C(=O)N2CCc3ccccc32)cc1` [E-14], under setting [2], the IC50 is greater than 1000 nM.

On to `CC(C)NC(=N)c1c(O)nsc1Nc1ccc(/C=C/c2ccccc2)cc1` [compound 241], for which the IC50 under setting [1] fell in the range of 100 to 500 nM.

Regarding `CC(CO)NC(=N)c1c(O)nsc1Nc1ccc(OCc2ccccc2)cc1` (stereo not shown) [compound 265], the IC50 under setting [1] was greater than 500 nM.

Take `CCCCc1ccc(Nc2snc(O)c2C(=N)NCC2CCCCC2)cc1` [compound 94]: the IC50 under setting [1] lay within 100 to 500 nM.

In the case of `N=C(NCCc1ccccc1)c1c(O)nsc1Nc1ccc(Oc2ccccc2)cc1` [Cpd 14], the IC50 under setting [1] was in the range of 100 to 500 nM.

For `CNC(=N)c1c(O)nsc1Nc1ccc(Oc2ccccc2)cc1` [compound 198], the IC50 under setting [1] was in the range of 1 to 100 nM.

For the compound `N=C(NCC1CCCCC1)c1c(O)nsc1Nc1ccc(Oc2ccccc2)nc1` [compound 103], under setting [1], the IC50 fell in the range of 100 to 500 nM.

Turning to `CC(CO)NC(=N)c1c(O)nsc1Nc1ccc(Oc2cccc(Cl)c2)cc1` (stereo not shown) [compound 252], the IC50 under setting [1] was 1 to 100 nM.

Regarding `N=C(NCc1ccc(C(F)(F)F)nc1)c1c(O)nsc1Nc1cccc(Oc2ccccc2)c1` [compound 182], the IC50 under setting [1] was 100 to 500 nM.

Consider `COc1ccc(Oc2ccc(Nc3snc(O)c3C(=N)NCC3CCCCC3)cc2)cc1` [compound 141], for which the IC50 under setting [1] is 100 to 500 nM.

Consider `Cc1cccc(C)c1Oc1ccc(Nc2snc(O)c2C(=N)NC(C)CO)cc1` (stereo not shown) [compound 282], for which the IC50 under setting [1] was greater than 500 nM.

Take `CC(CO)NC(=N)c1c(O)nsc1Nc1ccc(Oc2ccc(F)cc2)c(Cl)c1` (stereo not shown) [compound 392]: under setting [1], the IC50 is 100 to 500 nM.

As for `CC(C)Nc1snc(O)c1C(=N)NCC1CCCCC1` [compound 117], the IC50 under setting [1] was greater than 500 nM.

Consider `Cc1ccc(Nc2snc(O)c2C(=N)NN2CCCCC2)cc1` [Cpd 7], for which the IC50 under setting [1] is 100 to 500 nM.

In the case of `CC(C)N(O)C(=N)c1c(O)nsc1Nc1ccc(Oc2cc(F)cc(F)c2)cc1` [compound 421], the IC50 under setting [1] is 1 to 100 nM.

Consider `N=C(NCCN1CCCCC1)c1c(O)nsc1Nc1ccc(Oc2ccccc2)cc1` [compound 53], for which the IC50 under setting [1] was 100 to 500 nM.

With `N=C(NCC1CCCCC1)c1c(O)nsc1Nc1ccc(/N=N/c2ccccc2)cc1` [compound 128], the IC50 under setting [1] lay within 100 to 500 nM.

In the case of `N=C(NCCO)c1c(O)nsc1Nc1ccc(Oc2ccc(Cl)cc2)cc1` [compound 192], the IC50 under setting [1] lay within 100 to 500 nM.

For the compound `CC(C)NC(=N)c1c(O)nsc1Nc1ccc(Oc2ccc(F)cc2Cl)c(Cl)c1` [compound 297], the IC50 under setting [1] lay in the range of 100 to 500 nM.

Take `CC(C)NC(=N)c1c(O)nsc1Nc1ccc(Oc2ccc(Br)cc2)c(F)c1` [compound 330]: the IC50 under setting [1] was in the range of 1 to 100 nM.

For `CC(C)NC(=N)c1c(O)nsc1Nc1ccc(Oc2ccc(C(F)(F)F)cc2)c(F)c1` [compound 390], the IC50 under setting [1] lay within 100 to 500 nM.

Consider `N=C(NCC(O)CO)c1c(O)nsc1Nc1ccccc1F` (stereo not shown) [compound 69], for which, under setting [1], the IC50 is greater than 500 nM.

Turning to `CC(CO)NC(=N)c1c(O)nsc1Nc1ccc(Oc2ccccc2)nc1` (stereo not shown) [compound 258], the IC50 under setting [1] was greater than 500 nM.

With `N=C(NCC(O)CO)c1c(O)nsc1Nc1cccc(Br)c1` (stereo not shown) [compound 73], under setting [1], the IC50 was in the range of 100 to 500 nM.

Turning to `N=C(NCc1ccccc1)c1c(O)nsc1Nc1ccc(Oc2cc(Cl)ccc2Cl)cc1` [compound 454], the IC50 under setting [1] fell in the range of 1 to 100 nM.

Take `CC(C)NC(=N)c1c(O)nsc1Nc1ccc(Oc2cccc(C(F)(F)F)c2)nc1` [compound 430]: the IC50 under setting [1] lay within 100 to 500 nM.

`Cc1cc(Oc2cccc(F)c2F)ccc1Nc1snc(O)c1C(=N)NC(CO)C(C)C` (stereo not shown) [compound 503]: the IC50 under setting [1] lay in the range of 100 to 500 nM.

Turning to `C=CCNC(=N)c1c(O)nsc1Nc1ccc(Oc2ccccc2)cc1` [compound 200], the IC50 under setting [1] lay within 1 to 100 nM.

For `CC(C)NC(=N)c1c(O)nsc1Nc1ccc(Oc2cncnc2)cc1` [compound 169], under setting [1], the IC50 is 100 to 500 nM.

With `CC(C)NC(=N)c1c(O)nsc1Nc1ccc(Oc2ccccc2)nc1` [compound 257], the IC50 under setting [1] is greater than 500 nM.

On to `CC(C)NC(=N)c1c(O)nsc1Nc1ccc(Oc2ccccc2Cl)cc1` [compound 212], for which the IC50 under setting [1] lay in the range of 100 to 500 nM.

With `N=C(NCCOc1ccccc1)c1c(O)nsc1Nc1ccc(Oc2ccccc2)cc1` [compound 36], the IC50 under setting [1] fell in the range of 100 to 500 nM.

Take `Cc1ccc(Oc2ccc(Nc3snc(O)c3C(=N)NC(C)CO)cc2)cc1` (stereo not shown) [compound 247]: the IC50 under setting [1] lay within 100 to 500 nM.

As to `CC(C)NC(=N)c1c(O)nsc1Nc1ccc(Sc2ccccc2)cc1` [compound 255], the IC50 under setting [1] was 1 to 100 nM.

In the case of `CC(C)(C)CCNC(=N)c1c(O)nsc1Nc1ccc(Oc2ccccc2)cc1` [compound 41], the IC50 under setting [1] fell in the range of 100 to 500 nM.

Regarding `CC(C)NC(=N)c1c(O)nsc1Nc1ccc(Oc2cccc(Br)c2)cc1` [compound 250], under setting [1], the IC50 was in the range of 1 to 100 nM.

For the compound `N=C(NCc1ccccc1)c1c(O)nsc1Nc1ccc(Oc2ccccc2)cc1` [Cpd 20], the IC50 under setting [1] is 100 to 500 nM.

Take `Cc1cc(Oc2ccc(Cl)cc2F)ccc1Nc1snc(O)c1C(=N)NC(C)C` [compound 402]: the IC50 under setting [1] fell in the range of 1 to 100 nM.

`COC(=O)c1cccc(Nc2snc(O)c2C(=N)NC(C)C)c1C` [compound 479]: the IC50 under setting [1] is greater than 500 nM.

`CC(CO)NC(=N)c1c(O)nsc1Nc1ccc(C(=O)N2CCc3ccccc32)cc1` (stereo not shown) [E-16]: under setting [2], the IC50 was 1 to 200 nM.

Take `CC(C)NC(=N)c1c(O)nsc1Nc1ccc(Oc2ccccc2)c(Cl)c1` [compound 286]: the IC50 under setting [1] was in the range of 1 to 100 nM.

On to `CC(C)NC(=N)c1c(O)nsc1Nc1ccc(Oc2cc(C(F)(F)F)cc(C(F)(F)F)c2)cc1` [compound 331], for which, under setting [1], the IC50 is 1 to 100 nM.

Consider `N=C(NCC1CCCCC1)c1c(O)nsc1Nc1ccc(C(F)(F)F)cc1Cl` [compound 98], for which, under setting [1], the IC50 is greater than 500 nM.

In the case of `CC(C)NC(=N)c1c(O)nsc1Nc1ccc(Oc2cc(C(F)(F)F)ccc2Cl)cc1` [compound 294], the IC50 under setting [1] lay within 100 to 500 nM.

`CC(C)C[C@H](CO)NC(=N)c1c(O)nsc1Nc1ccc(Oc2ccccc2)cc1` [compound 163]: the IC50 under setting [1] lay in the range of 100 to 500 nM.

As to `CCC(CO)NC(=N)c1c(O)nsc1Nc1ccc(Oc2ccccc2)cc1` (stereo not shown) [compound 153], the IC50 under setting [1] was 100 to 500 nM.

In the case of `N=C(NCC1CCCCC1)c1c(O)nsc1Nc1ccc(Oc2ccccc2)cc1` [compound 37], the IC50 under setting [1] is 1 to 100 nM.

Consider `CC(CO)NC(=N)c1c(O)nsc1Nc1ccc(Oc2ccccc2)c(F)c1` (stereo not shown) [compound 306], for which, under setting [1], the IC50 is 1 to 100 nM.

Take `CCOC(=O)c1cccc(Oc2ccc(Nc3snc(O)c3C(=N)NC(C)C)cc2)c1` [compound 410]: the IC50 under setting [1] was 1 to 100 nM.

On to `N=C(NCC1CCCCC1)c1c(O)nsc1NCc1ccc(C(F)(F)F)cc1` [compound 108], for which the IC50 under setting [1] is greater than 500 nM.

With `N=C(c1c(O)nsc1Nc1ccc(Oc2ccccc2)cc1)N(O)Cc1ccccc1` [compound 138], under setting [1], the IC50 was in the range of 100 to 500 nM.

Regarding `Cc1ccc(Nc2snc(O)c2/C(N)=N/O)cc1` [Cpd 3], under setting [1], the IC50 was greater than 500 nM.

For the compound `Cc1ccc(Oc2ccc(Nc3snc(O)c3C(=N)NCC3CCCCC3)cn2)cn1` [compound 134], under setting [1], the IC50 is greater than 500 nM.

As for `CC(C)N(O)C(=N)c1c(O)nsc1Nc1ccc(Oc2ccccc2)cc1` [compound 144], the IC50 under setting [1] lay within 1 to 100 nM.

As for `COc1ccc(Nc2snc(O)c2-c2nnn[nH]2)c(OC)n1` [compound 181], under setting [1], the IC50 is greater than 500 nM.
